Data as given in ChEMBL document CHEMBL1201862, “PubChem BioAssay data set” (2004).
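Tested at 5 concentrations; 48 h exposure; 96-well plates; endpoints linearly interpolated, else capped at highest concentration. The concentration for 50% growth inhibition is given as GI50.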 Activity calls are given as the source filed them. Rule as the data show it: active = GI50 up to about 1.1 µM and inactive = higher.

Assays:
Assay in all cases: inhibition of tumour cell growth, NCI panel, 48 h
[1] = system: MDA-MB-231
[2] = system: NCI-H460
[3] = system: MDA-MB-435
[4] = system: SNB-19
[5] = system: SK-OV-3
[6] = system: SF-268
[7] = system: OVCAR-3
[8] = system: MDA-N
[9] = system: NCI-H522
[10] = system: UACC-257
[11] = system: SF-295
[12] = system: A498
[13] = system: U-251
[14] = system: 786-0
[15] = system: T47D
[16] = system: NCI/ADR-RES
[17] = system: M14
[18] = system: OVCAR-5
[19] = system: SN12C
[20] = system: SF-539

Measured: GI50

C[N+]1(C(CO)Cc2c[nH]c3ccccc23)Cc2ccccc2C1 (stereo unspecified)
inactive: [1] > 100 µM | [2] > 100 µM | [3] > 100 µM | [4] > 100 µM | [5] > 100 µM | [6] > 100 µM | [7] > 100 µM | [8] > 100 µM | [9] 49.3 µM | [10] 44 µM | [11] > 100 µM | [12] 66.5 µM | [13] > 100 µM | [14] > 100 µM | [15] > 100 µM | [16] > 100 µM | [17] 35.8 µM | [18] 89.3 µM | [19] > 100 µM

CC(C)(C)C(=O)c1c(O)c2ccccc2c2ccccc2c1=O
inactive: [1] > 100 µM | [2] > 100 µM | [3] > 100 µM | [4] > 100 µM | [5] > 100 µM | [6] > 100 µM | [20] > 100 µM | [7] 59.2 µM | [8] > 100 µM | [9] 23.7 µM | [10] > 100 µM | [11] 48.6 µM | [12] 50.6 µM | [13] 33.3 µM | [14] > 100 µM | [15] 52.1 µM | [17] 95.3 µM | [18] > 100 µM | [19] > 100 µM

CC(=O)/C(=C\c1ccc(Cl)c(Cl)c1)C(=O)C(C)CN(C)C (stereo unspecified)
inactive: [1] 11.5 µM | [2] 12.5 µM | [3] 3.24 µM | [4] 1.8 µM | [5] 16.5 µM | [6] 3.62 µM | [20] 3.52 µM | [7] 4.1 µM | [8] 3.62 µM | [10] 10.4 µM | [11] 4.32 µM | [12] 2.96 µM | [13] 3.26 µM | [14] 2.39 µM | [15] 2.65 µM | [16] 13.1 µM | [17] 9.75 µM | [18] 10.8 µM | [19] 6.73 µM

CCOC(=O)C1(C#N)C(C#N)(C#N)C1(C#N)C#N
inactive: [1] > 100 µM | [2] > 100 µM | [3] > 100 µM | [4] > 100 µM | [5] > 100 µM | [6] > 100 µM | [8] > 100 µM | [9] > 100 µM | [10] > 100 µM | [11] > 100 µM | [12] > 100 µM | [13] > 100 µM | [14] > 100 µM | [15] > 100 µM | [16] > 100 µM | [17] > 100 µM | [18] > 100 µM | [19] > 100 µM

C[C@]12CCC3c4ccc(O)cc4CC[C@H]3C1CC(=O)N(CCN1CCCC1)C2=O (stereo partly specified)
inactive: [1] > 10 µM | [2] > 10 µM | [3] > 10 µM | [4] > 10 µM | [5] > 10 µM | [6] > 10 µM | [20] > 10 µM | [7] > 10 µM | [8] > 10 µM | [10] > 10 µM | [11] > 10 µM | [12] > 10 µM | [13] > 10 µM | [14] > 10 µM | [15] > 10 µM | [16] > 10 µM | [17] > 10 µM | [18] > 10 µM | [19] > 10 µM

Clc1ccc(/C=C/c2nc(-c3ccc(Cl)cc3)cn3c2nc2ccccc23)cc1
inactive: [1] > 100 µM | [2] > 100 µM | [3] > 100 µM | [4] > 100 µM | [5] > 100 µM | [6] > 100 µM | [20] > 100 µM | [7] > 100 µM | [8] > 100 µM | [10] > 100 µM | [12] > 100 µM | [13] > 100 µM | [14] > 100 µM | [15] 88.7 µM | [16] > 100 µM | [17] > 100 µM | [18] > 100 µM | [19] > 100 µM

O=S(=O)(N/C(=N\O)Nc1ccc(Cl)cc1)c1cc2ccccc2o1
inactive: [1] 18 µM | [2] 38.7 µM | [3] 12.2 µM | [4] 34.5 µM | [5] 19.3 µM | [6] 18.3 µM | [20] 33.9 µM | [7] 13.1 µM | [8] 38.8 µM | [9] 12.2 µM | [10] 19.5 µM | [11] 14.9 µM | [13] 17.7 µM | [14] 20.7 µM | [15] > 100 µM | [16] 19.8 µM | [17] 21.2 µM | [18] 23.6 µM | [19] 18.1 µM

C[C@]12CC[C@H]3[C@@H](CCC4=C(Br)C(=O)C=C[C@@]43O)[C@@H]1CCC2=O
inactive: [1] 82 µM | [2] 23.5 µM | [3] 33.7 µM | [4] 61 µM | [5] > 100 µM | [6] 45.7 µM | [20] 53.7 µM | [7] 45.4 µM | [8] 30.6 µM | [9] 13 µM | [10] 16.9 µM | [11] 74.1 µM | [12] 49.2 µM | [13] 52.6 µM | [14] 24.9 µM | [16] 27.2 µM | [17] 39.3 µM | [18] 61 µM | [19] 33.7 µM

CN(NC(=O)/C(=C/c1ccc(Cl)cc1)NC(=O)c1ccccc1)c1cn[nH]c(=O)c1Cl
inactive: [1] > 100 µM | [2] > 100 µM | [3] > 100 µM | [4] > 100 µM | [5] > 100 µM | [6] > 100 µM | [20] > 100 µM | [7] 87.1 µM | [8] > 100 µM | [9] 17.5 µM | [10] > 100 µM | [11] 46.6 µM | [13] 40.9 µM | [14] > 100 µM | [16] 34 µM | [17] > 100 µM | [18] > 100 µM | [19] > 100 µM

Cc1cc(C)c(C(=O)c2nnc3ccccc3c2N)c(C)c1
inactive: [1] 16.9 µM | [3] 15.8 µM | [4] 35.8 µM | [5] 32.4 µM | [6] 48.3 µM | [7] 16.3 µM | [8] 16.7 µM | [10] 37.9 µM | [12] 26.9 µM | [13] 28.7 µM | [14] 12.3 µM | [15] 16.6 µM | [16] 24.3 µM | [17] 13.9 µM | [18] 15.8 µM | [19] 15.3 µM

COC(=O)C1Cc2cc3c(cc2C1)CCC3
inactive: [1] > 100 µM | [2] > 100 µM | [3] > 100 µM | [4] > 100 µM | [5] > 100 µM | [6] > 100 µM | [20] > 100 µM | [7] > 100 µM | [8] > 100 µM | [10] > 100 µM | [11] > 100 µM | [12] > 100 µM | [13] > 100 µM | [14] > 100 µM | [15] > 100 µM | [16] > 100 µM | [17] > 100 µM | [18] > 100 µM | [19] > 100 µM

CCC[C@H](O)[C@@H](CNc1cc(NC(C)=O)nc(NC(C)=O)n1)N(Cc1ccccc1)Cc1ccccc1
inactive: [1] 49.9 µM | [2] 21.8 µM | [3] 54 µM | [4] 39.3 µM | [5] 19.8 µM | [7] 18.9 µM | [8] 47 µM | [9] 8.75 µM | [10] 29.2 µM | [11] 6.44 µM | [12] 30.8 µM | [13] 47 µM | [14] 17.7 µM | [16] 19.3 µM | [17] 26.5 µM | [18] 27.9 µM | [19] 41.3 µM

COc1cccc(C2c3cc4c(cc3OC(N3CCCCC3)C2C)OCO4)c1O (stereo unspecified)
inactive: [1] 11.2 µM | [2] 4.13 µM | [3] 1.75 µM | [4] 7.93 µM | [5] 6.79 µM | [6] 9.71 µM | [20] 2.22 µM | [7] 2.93 µM | [8] 2.3 µM | [9] 2.74 µM | [10] 8.04 µM | [11] 4.26 µM | [13] 3.82 µM | [14] 4.72 µM | [15] 8.38 µM | [16] 5.12 µM | [17] 4.2 µM | [18] 17.7 µM | [19] 4.69 µM

COc1ccc(OC)c2sc(N3C(=O)/C(=C/c4ccc(N(C)C)cc4)N=C3c3ccccc3)nc12
inactive: [1] > 100 µM | [2] 92.9 µM | [3] 31.4 µM | [4] > 100 µM | [5] > 100 µM | [6] > 100 µM | [20] 98.2 µM | [7] 58.2 µM | [8] 22.2 µM | [10] > 100 µM | [11] > 100 µM | [12] 87.7 µM | [13] 44.1 µM | [14] 92.3 µM | [15] 38.5 µM | [16] > 100 µM | [17] 99.3 µM | [18] > 100 µM | [19] 52.5 µM

CC1CC(NN)=Nc2ccccc2N1 (stereo unspecified)
inactive: [1] > 100 µM | [2] > 100 µM | [3] > 100 µM | [4] > 100 µM | [5] > 100 µM | [6] > 100 µM | [7] > 100 µM | [8] > 100 µM | [9] > 100 µM | [10] > 100 µM | [11] > 100 µM | [12] > 100 µM | [13] > 100 µM | [14] > 100 µM | [16] > 100 µM | [17] > 100 µM | [18] > 100 µM | [19] > 100 µM
